# Measurements: a melting point compilation (Tetko et al.; mined from patent text by program, amines drawn as free bases though some values may be those of a salt)
row,SMILES,melting point [°C]
1,OC1CSC(Oc2cccnc2-c2ccc(F)cc2)C(O)C1O (configuration not stated),110
2,COc1ccc(C2CCc3cc(OC)ccc3C2CCO)cc1 (configuration not stated),95
3,O=C1C2C[C@@H](OCc3ccccc3)CN2C(=O)N1c1ccc([N+](=O)[O-])c2ccccc12 (some centres not stated),120 to 122
4,Clc1nccc2[nH]cnc12,100 to 102
5,CCn1cc(C2(c3cccc(-c4cccnc4F)c3)N=C(N)N(C)C2=O)cc1C=O (configuration not stated),152 to 156
6,COc1ccccc1CP(CCP(Cc1ccccc1OC)c1ccccc1)c1ccccc1 (configuration not stated),102 to 104
7,CC(C)c1nn(-c2ccc(F)cn2)cc1CCCO,78 to 79
8,CS(=O)(=O)Nc1ccc(N2CCN(c3cc(N)ccn3)CC2)cc1,225 to 227
9,CCCC(=CC(=O)O)CCC,20
10,CC(C)(C)c1cc(OCC(=O)NN)cc(C(C)(C)C)c1O,141 to 142
11,COc1ccc(CN(C)CC(O)COc2ccc(NC(=O)c3cccc4c(=O)c5cccc(OC)c5[nH]c34)cc2)cc1OC (configuration not stated),175
12,CC12CCC(=O)C=C1CCC1C2C2CC3(C(O)O2)C(C(=O)COC(=O)CC(CC(=O)O)c2ccc(O)cc2)CCC13 (configuration not stated),145 to 152
13,CCc1cccc(Nc2ncnc3cc(OCCOC)c(OCCOC)cc23)c1,72 to 74
14,COc1ccc(-c2nc(C(=O)c3ccc(N)c(C(=O)O)c3)n3ccccc23)cc1,296
15,COCc1cc(-c2nc(-c3cnc(N)c(C)c3)no2)ccc1-c1ccccc1F,162 to 164
16,CCCc1ccn(-c2ccc(S(C)(=O)=O)cc2)c1-c1ccc(F)cc1,116 to 117
17,O=C(OCC1(c2ccccc2)CC1)c1cccc2nnsc12,55 to 57
18,O=Cc1cc2c3ccccc3c3ccccc3c2o1,84 to 85
19,CCCN1C(=O)CC(C)(C)c2cc(C)c(-c3cc(C=C4SC(=O)NC4=O)ccc3N(C)C)cc21,258 to 260
20,COC(=O)c1cn2c(NCCCCCCNS(=O)(=O)c3ccccc3[N+](=O)[O-])nsc2n1,148 to 149
21,CC(C)c1cc(CCCOc2nn(C)cc2CC(=O)O)n(Cc2ccc(Cl)cc2Cl)n1,67 to 68
22,Oc1ccccc1-c1nc(-c2ccccc2O)n(Cc2ccccc2)n1,166 to 168
23,COc1cc2c(cc1OC)CNCC2,139 to 141
24,Cc1nnc(-c2ccc3occ(-c4ccc(O)cc4)c3c2)o1,226 to 227
25,Nc1ncc(Sc2ncccn2)s1,175 to 177
26,OC(CN1CC=C(c2ccc(Cl)cc2)CC1)c1ccc(Cl)cc1 (configuration not stated),152 to 153
27,CS(=O)(=O)c1ccc(Br)cc1[N+](=O)[O-],175 to 177
28,COc1ccc(C(C)=NOCc2cccc(F)c2)cc1F,67

row,SMILES,melting point [°C]
1,O=C1CCC(c2ccc(-n3cccc3)cc2)=NN1,222 to 223
2,COc1ccc(-c2cc(=O)c3c(O)cc(O)c(-c4cc(-c5cc(=O)c6c(O)cc(O)cc6o5)ccc4OC)c3o2)cc1,219 to 222
3,Cc1nc2c(N[C@@H]3c4ccccc4C[C@H]3O)cc(C(=O)N(C)C)cc2n1C (relative stereo),219 to 221
4,CCOC(=O)Cn1c(-c2ccc(F)cc2)nc2cccnc21,126 to 128
5,CN1C(=O)c2cccnc2NS1(=O)=O,290 to 292
6,CN(c1cc(OCCCS(C)(=O)=O)cc2cc(C3=NCC(CN4CCOCC4)S3)[nH]c12)S(=O)(=O)c1ccccn1 (configuration not stated),168 to 169
7,Cc1cc(C)c(S(=O)(=O)N=[N+]=[N-])c(C)c1S(=O)(=O)N=[N+]=[N-],54 to 56
8,CC(=O)Nc1c(C#N)cnn1-c1c(Cl)cc(Cl)c(Cl)c1Cl,115
9,CC1(C)CC(n2cncc2C(=O)O)c2ccccc2O1 (configuration not stated),246
10,C=C(c1ccccc1N1CCCCC1)C(C(N)=O)c1ccc(C(=O)O)cc1 (configuration not stated),158 to 160
11,O=C(Nc1ccc(N(CCCl)CCCl)cc1)Nc1cccc([N+](=O)[O-])c1,246 to 247
12,NCC(=O)NC(Cc1ccccn1)c1ccccc1 (configuration not stated),75 to 77
13,COC(=O)c1ccc(N2CCN(C)CC2)cc1,117 to 119
14,CCc1nc(-c2ccc(OCCCn3cnc4ccccc43)cc2)no1,100 to 101
15,CN(C)c1ccc(-c2noc([C@H]3CCCN(C(=O)c4ccc(F)cc4)C3)n2)cc1,147 to 153
16,Cc1ccc2c(NCc3ccc(NC(=O)c4ccc(F)cc4)cc3)nc(N3CCN[C@@H](C)C3)nc2c1,200 to 202
17,CC1(C)Oc2ccc(C#N)cc2C(Oc2ccc(O)nn2)C1(C)O (configuration not stated),131 to 134
18,COC(=O)SN(C(=O)NC(=O)c1c(F)cccc1F)c1ccc(Oc2ccc(C(F)(F)F)cc2Cl)cc1,108 to 109
19,Oc1ccc2ccc(OCCN3CCC(Cc4ccccc4)CC3)cc2c1,159 to 160
20,N#CCCNC(=O)c1cccc(-c2cccc3nn(Cc4ccccc4)cc23)c1,143 to 144
21,CCCCOC(=O)c1ccc(Nc2ncc(C(=O)OCC)c(=O)[nH]2)cc1,281 to 283
22,CN(C(N)=O)c1ccccc1S,73 to 75
23,CC(OC(=O)OCC(=O)N(C)C)OC(=C1C(=O)N(C(N)=O)c2cc(Cl)c(F)cc21)c1cccs1 (configuration not stated),194 to 196
24,CC(=O)Nc1ccccc1C(=O)C1CCCCC1,66
25,CC1(C)CC(=O)Nc2cc3nc(-c4ccc(-n5ccnc5)cc4)[nH]c3cc21,> 300
26,NC(=O)C12CCCN(CCC1)C2,172 to 175
27,CN(c1ccccc1)c1nc(N(C)c2ccccc2)c2sccc2n1,120 to 122

# Second part, the compound after the results:
row,melting point [°C],SMILES
1,207 to 209,O=C(O)CSc1cccc2c1S(=S)N=N2 (configuration not stated)
2,159 to 160,O=C1C2CCCCN2C(=S)N1c1ccc(F)cc1F (configuration not stated)
3,58.3,CCOc1ccccc1C=[N+]([O-])C(C)(C)C
4,125 to 126,CC(=O)Nc1cc([N+](=O)[O-])c(Cl)cc1F
5,102 to 103,CCCCNC(=S)N1CCC(c2nc(-c3ccc(-c4ccccc4)cc3)c[nH]2)CC1
6,221 to 224,COc1ccccc1-c1cccc(-n2cnc3cc(C4=NCCN4)ccc32)c1
7,159 to 161,COc1ccc(Cn2nccc2-c2nn(-c3cccc(C(F)(F)F)c3)ccc2=O)cc1
8,75 to 77,Clc1nc2ccccc2c2c(CCN3CCN(Cc4ccccc4)CC3)n(-c3ccccc3)nc12
9,286 to 288,COc1cc(NC2=C(Cl)C(=O)c3ccccc3C2=O)ccc1S(=O)(=O)Nc1cccc(C)c1
10,236 to 238,CCCCOCCOc1ccc(-c2ccc3c(c2)C=C(C(=O)O)CCN3c2ccc(S(=O)(=O)N(C)C)cc2)cc1
11,84 to 88,Nc1cccc2c1cnn2-c1ccc(F)cc1
12,62 to 64,OCCN1CCC(Cc2ccccc2)CC1
13,141 to 143,COc1nc(CCc2cc(Br)ccc2OCc2ccccc2)ccc1C(=O)O
14,136 to 138,C=C(c1cccc(-c2cnnn2COCC)c1F)C(O)(Cn1cncn1)c1ccc(F)cc1F (configuration not stated)
15,86 to 87,CCOC(=O)CC(=O)N1NCCCC1C(=O)OC(C)(C)C (configuration not stated)
16,128 to 132,Cc1cccc(-c2ncc(N)c(=O)n2CC(=O)NC(Cc2ccccc2)C(=O)C(F)(F)C(=O)NCC(=O)O)c1 (configuration not stated)
17,> 250,CC(=O)Nc1ccc(/C=C/C(=O)N2CC(CCl)c3c2cc(N)c2ccccc32)cc1 (configuration not stated)
18,161 to 162,O=c1n(-c2ccc(OCC(F)(F)C(F)F)cc2)cnn1-c1ccc([N+](=O)[O-])cc1
19,251 to 252,COc1ccc(N2CCN(c3ccc(-n4c(C)n[nH]c4=O)cn3)CC2)cc1
20,83 to 85,CCc1nc2ccccc2c(C(=O)OCC(=O)OC(C)(C)C)c1Oc1ccc(-c2ccccc2C#N)cc1
21,72 to 74,CCOC(=O)c1cc(C#N)c(C)nc1N1CCCCC1

row,melting point [°C],SMILES
1,242 to 243,CCOC(=O)Cn1c(=O)[nH]c(=O)c2ccc(Cl)cc21
2,326,O=C(Oc1cccc2c(OC(=O)c3ccc(O)cc3)c3c(OC(=O)c4ccc(O)cc4)cccc3cc12)c1ccc(O)cc1
3,152,Nc1nc(/C(=N/OCC(=O)OC(c2ccccc2)c2ccccc2)C(=O)Sc2nc3ccccc3s2)cs1
4,254 to 255,COc1ccccc1-c1[nH]c2cccc3c2c1CCNC3=O
5,209 to 210,O=C(CSc1nc2ccccc2[nH]1)c1ccc2[nH]c3ncc(Cl)cc3c2c1
6,128 to 130,CC(C)C[C@H](O)[C@H](O)[C@H](CC1CCCCC1)NC(=O)OC(C)(C)C
7,89.1,O=C([C@H]1CN(Cc2ccccc2)CCN1C(=O)NC1CCCCC1)N(CCCn1ccnc1)Cc1ccccc1
8,63 to 65,COc1cc(C(=O)N(C(C)C)C(C)C)ccc1OCCCCOc1ccc(C(N)=NO)cc1
9,297 to 299,O=C1NC(=S)SC1=Cc1ccc2c(c1)N(Cc1cccc(-c3ccncc3)c1)C(=O)CO2
10,185 to 187,CN(C)c1ccc([N+](=O)[O-])c(C(=O)O)c1
11,211 to 213,CCCn1nc2c(N)nc3ccccc3c2c1CCCCS(N)(=O)=O
12,190,Fc1ccc(-c2cc(C(F)(F)F)n3ncc(-c4cccnc4)c3n2)cc1Cl
13,99 to 101,CC1(C)CC(c2ccccn2)c2ccccc2O1 (configuration not stated)
14,120,CCOC(=O)c1c(N2CCNCC2)c2cccnc2n(Cc2ccccc2)c1=O
15,72 to 75,CCOC(=O)C1=C(C)NC(C)=C(C(=O)OCCN2CCN(C(c3ccccc3)c3ccccc3)CC2)C1c1cccc(Cl)c1 (configuration not stated)
16,120 to 121,COC1CCC2C3CCc4cc(O)c(C=O)cc4C3CCC12C (configuration not stated)
17,131 to 132,Cn1nnc(-c2ccc3c(c2)c(C2=CCN(CCc4nnn[nH]4)CC2)cn3-c2ccc(F)cc2)n1
18,262 to 265,Cc1ccc(N2C(=O)C(O)=C(C(=O)c3ccc(C(C)(C)C)cc3)C2c2ccc(OC(F)(F)F)cc2)nn1 (configuration not stated)
19,130 to 137,Cc1noc(NS(=O)(=O)c2ccccc2-c2ccc(-c3ncco3)cc2Cn2c(=O)oc3ccccc32)c1C
20,98 to 100,CCCC/C=C\CCCCOc1cccc(C(N)=O)c1
21,202 to 204,O=Cc1cccc2c1sc1cc3ccccc3cc12
